Data as given in patent US6245817A, “NPY5 receptor antagonists and methods for using same” (Bayer Corporation, priority 1999, dated 2001).
pIC50: −log10 of the molar value. Read-outs that look alike come from different tables or passages of the source.

What was measured:
Human NPY5 Receptor = molecular target: T1, Human NPY5 Receptor (Homo sapiens, UniProt Q15761); test: Human NPY5 Receptor Binding Assay
T1 sequence (Q15761 1-445): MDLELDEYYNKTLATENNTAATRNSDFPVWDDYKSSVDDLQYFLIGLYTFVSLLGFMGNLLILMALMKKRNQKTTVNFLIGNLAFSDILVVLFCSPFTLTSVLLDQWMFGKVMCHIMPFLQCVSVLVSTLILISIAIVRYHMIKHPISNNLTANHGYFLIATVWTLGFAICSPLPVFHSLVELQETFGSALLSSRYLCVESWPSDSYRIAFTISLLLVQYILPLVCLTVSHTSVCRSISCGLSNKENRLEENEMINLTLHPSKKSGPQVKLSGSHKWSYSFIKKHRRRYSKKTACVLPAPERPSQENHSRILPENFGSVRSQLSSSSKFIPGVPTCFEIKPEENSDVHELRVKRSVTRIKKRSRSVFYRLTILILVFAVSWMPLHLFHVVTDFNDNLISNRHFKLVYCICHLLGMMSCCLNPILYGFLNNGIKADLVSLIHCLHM
Procedure: Human and Rat NPY5 Receptor Binding Assays
Binding assays are performed on GF/C Millipore 96-well plates pretreated with 0.02% polyethylenimine. The binding buffer is 25 mM Tris, 120 mM NaCl, 5 mM KCl, 1.2 mM KH2 PO4, 2.5 mM CaCl2, 1.2 mM MgSO4, 0.1% BSA and 0.5 mg/ml bacitracin, pH 7.4. Samples consist of membrane protein, 75-100 pM [125I]PYY (porcine, NEN-DuPont) and drug dilution. Nonspecific binding is defined by 1 μM PYY. After a 2 hour incubation at room temperature with constant mixing, the samples are aspirated on a vacuum manifold, and rinsed with ice-cold binding buffer. The amount of radioactivity in each well is quantitated with either gamma counting or liquid scintillation. IC50 values, which correspond to 50% inhibition of specific binding, are determined with non-linear regression analysis.

Human NPY2 receptor = molecular target: T2, Human NPY2 receptor (Homo sapiens, UniProt P49146); test: Human NPY2 Receptor Binding Assay
T2 sequence (P49146 1-381): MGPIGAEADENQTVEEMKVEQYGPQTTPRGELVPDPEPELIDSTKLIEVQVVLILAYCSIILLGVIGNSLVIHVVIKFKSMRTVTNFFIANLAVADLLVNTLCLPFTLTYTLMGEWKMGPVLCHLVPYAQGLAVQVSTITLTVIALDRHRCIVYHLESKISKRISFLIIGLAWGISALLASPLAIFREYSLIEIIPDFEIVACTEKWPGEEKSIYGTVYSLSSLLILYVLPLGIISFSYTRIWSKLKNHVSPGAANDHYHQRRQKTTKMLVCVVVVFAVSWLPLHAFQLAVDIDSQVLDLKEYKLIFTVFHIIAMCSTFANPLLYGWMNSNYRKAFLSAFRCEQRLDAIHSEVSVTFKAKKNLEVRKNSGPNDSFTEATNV
Procedure: Binding assays were performed on GF/C Millipore 96-well plates pretreated with 0.02% polyethylenimine. The binding buffer for rat Y2 binding is Krebs-Ringer bicarbonate (pH 7.4) containing 0.01% BSA and 0.005% bacitracin. Samples consist of membrane protein, 25 pM [125I]PYY and drug dilution. Nonspecific binding is defined by 1 μpM NPY.
After a 2 hour incubation at room temperature with constant mixing, the samples are aspirated on a vacuum manifold, and rinsed with ice-cold binding buffer. The amount of radioactivity in each well is quantitated with either gamma counting or liquid scintillation.

[1] = [125I]PYY, read-out: hNPY5 IC50
[2] = [125I]PYY, read-out: hPPY2 IC50

SMILES: O=C(CSc1ncnc2c1ncn2[C@@H]1O[C@H](CO)[C@H](O)[C@H]1O)Nc1ccc(C(=O)c2ccccc2)cc1 [Compound 24, N-(4-Benzoyl-phenyl)-2-[9-((2R,3R,4R,5R)-3,4-dihydroxy-hydroxymethy-tetrahydro-furan-2-yl)-9H-purin-ylsulfanyl]-acetamide]
- pIC50 (Human NPY5 Receptor; [1]): < 5.00
- pIC50 (Human NPY2 receptor; [2]): < 5.30

SMILES: O=C(CSc1nc2ccccc2c(=O)[nH]1)Nc1ccc(C2CCCCC2)cc1 [Compound 25, N-(4-Cyclohexyl-phenyl)-2-(4-oxo-3,-dihydro-quinazolin-2-ylsulfanyl)-acetamide]
- pIC50 (Human NPY5 Receptor; [1]): < 5.00
- pIC50 (Human NPY2 receptor; [2]): < 5.30

SMILES: O=C(CSc1ncnc2nc[nH]c12)Nc1ccc(C(=O)c2ccccc2)cc1 [Compound 28, N-(4-Benzoyl-phenyl)-2-(7H-purin-ylsulfanyl)-acetamide]
- pIC50 (Human NPY5 Receptor; [1]): < 5.00
- pIC50 (Human NPY2 receptor; [2]): < 5.30

SMILES: Cc1ccnc(SCC(=O)Nc2ccc(C(=O)c3ccccc3)cc2)n1 [Compound 30, N-(4-Benzoyl-phenyl)-2-(4-methyl-pyrimidin-2-ylsulfanyl)-acetamide]
- pIC50 (Human NPY5 Receptor; [1]): 6.32
- pIC50 (Human NPY2 receptor; [2]): < 5.30

SMILES: O=C(CSC1=NCCS1)Nc1ccc(C2CCCCC2)cc1 [Compound 31]
- pIC50 (Human NPY5 Receptor; [1]): 6.19
- pIC50 (Human NPY2 receptor; [2]): < 5.30

SMILES: O=C(CSC1=NCCS1)Nc1ccc(C(=O)c2ccccc2)cc1 [Compound 32, N-(4-Benzoyl-phenyl)-2-(4,5-dihydro-thiazol-2-ylsulfanyl)-acetamide]
- pIC50 (Human NPY5 Receptor; [1]): 5.92
- pIC50 (Human NPY2 receptor; [2]): < 5.30

SMILES: O=C(CSCCO)Nc1ccc(C2CCCCC2)cc1 [Compound 33, N-(4cydohexyl-phenyl)-2-(2-hydroxy-ethylsulfanyl)-acetamide]
- pIC50 (Human NPY5 Receptor; [1]): 7.16
- pIC50 (Human NPY2 receptor; [2]): < 5.30

SMILES: O=C(CSCC(O)CO)Nc1ccc(C2CCCCC2)cc1 (stereo not shown) [Compound 34, N-(4-Cyclohexyl-phenyl)-2-(2,3-dihydroxy-propylsulfanyl)-acetamide]
- pIC50 (Human NPY5 Receptor; [1]): 6.84
- pIC50 (Human NPY2 receptor; [2]): < 5.30

SMILES: O=C(CSc1ncnc2[nH]ncc12)Nc1ccc(C2CCCCC2)cc1 [Compound 35, N-(4-Cyclohexyl-phenyl)-2-(1H-pyrazolo[3,4-d]pyrimidin-4-ylsulfanyl)-acetamide]
- pIC50 (Human NPY5 Receptor; [1]): 5.44
- pIC50 (Human NPY2 receptor; [2]): < 5.30

SMILES: O=C(CSc1cccc[n+]1[O-])Nc1ccc(C2CCCCC2)cc1 [Compound 36, N-(4-Cyclohexyl-phenyl)-2-(1-oxy-pyridin-2-ylsulfanyl)-acetamide]
- pIC50 (Human NPY5 Receptor; [1]): 6.96
- pIC50 (Human NPY2 receptor; [2]): < 5.30

SMILES: O=C(CSc1nc2ccccc2s1)Nc1ccc(C2CCCCC2)cc1 [Compound 37, 2-(Benzothiazol-2-ylsulfanyl)-N-(4-cyclohexylphenyl)-acetamide]
- pIC50 (Human NPY5 Receptor; [1]): 5.77
- pIC50 (Human NPY2 receptor; [2]): < 5.30

SMILES: O=C(CSc1nc2ccccc2o1)Nc1ccc(C2CCCCC2)cc1 [Compound 38, 2-(Benzooxazol-2-ylsulfanyl)-N-(-Cyclohexyl-phenyl)-acetamide]
- pIC50 (Human NPY5 Receptor; [1]): < 5.00
- pIC50 (Human NPY2 receptor; [2]): < 5.30

SMILES: O=C(CSc1ncccn1)Nc1ccc(C2CCCCC2)cc1 [Compound 39, N-(-Cyclohexyl-phenyl)-2-(pyrimidin-2-ylsulfanyl)-acetamide]
- pIC50 (Human NPY5 Receptor; [1]): 6.31
- pIC50 (Human NPY2 receptor; [2]): < 5.30

SMILES: O=C(CSCCO)Nc1ccc(C(=O)c2ccccc2)cc1 [Compound 40, N-(4-Benzoyl-phenyl)-2-(2-hydroxy-ethylsulfanyl)-acetamide]
- pIC50 (Human NPY5 Receptor; [1]): 6.16
- pIC50 (Human NPY2 receptor; [2]): < 5.30

SMILES: O=C(CSc1ccncc1)Nc1ccc(C(=O)c2ccccc2)cc1 [Compound 41, N-(4-Benzoyl-phenyl)-2-(pyridin-4-ylsulfanyl)-acetamide]
- pIC50 (Human NPY5 Receptor; hNPY5 IC50, [125I]PYY): 6.48
- pIC50 (Human NPY2 receptor): < 5.30

SMILES: O=C(CSCC(O)CO)Nc1ccc(C(=O)c2ccccc2)cc1 (stereo not shown) [Compound 42, N-(4-Benzoyl-phenyl)-2-(2,3-dihydroxy-propylsulfanyl)-acetamide]
- pIC50 (Human NPY5 Receptor; [1]): 5.82
- pIC50 (Human NPY2 receptor; [2]): < 5.30

SMILES: O=C(CSc1ncnc2[nH]ncc12)Nc1ccc(C(=O)c2ccccc2)cc1 [Compound 43, N-(4-Benzoyl-phenyl)-2-(1H-pyrazolo[3,4-d]pyrimidin-4-ylsulfanyl)-acetamide]
- pIC50 (Human NPY5 Receptor; [1]): 5.89
- pIC50 (Human NPY2 receptor; [2]): < 5.30

SMILES: O=C(CSc1ccccn1)Nc1ccc(C(=O)c2ccccc2)cc1 [Compound 44, N-(4-Benzoyl-phenyl)-2-(pyridin-2-ylsulfanyl)-acetamide]
- pIC50 (Human NPY5 Receptor; [1]): 6.49
- pIC50 (Human NPY2 receptor; [2]): < 5.30

SMILES: Cn1nnnc1SCC(=O)Nc1ccc(C(=O)c2ccccc2)cc1 [Compound 45, N-(4-Benzoyl-phenyl)-2-(1-methyl-1H-tetrazol-5-ylsulfanyl)-acetamide]
- pIC50 (Human NPY5 Receptor; [1]): 6.77
- pIC50 (Human NPY2 receptor; [2]): < 5.30

SMILES: O=C(CSc1cccc[n+]1[O-])Nc1ccc(C(=O)c2ccccc2)cc1 [Compound 46, N-(4-Benzoyl-phenyl)-2-(1-oxy-pyridin-2-ylsulfanyl)-acetamide]
- pIC50 (Human NPY5 Receptor; [1]): 6.52
- pIC50 (Human NPY2 receptor; [2]): < 5.30

SMILES: O=C(CSc1nc2ccccc2s1)Nc1ccc(C(=O)c2ccccc2)cc1 [Compound 47, 2-(Benzothiazol-2-ylsulfanyl)-N-(4-benzoyl-phenyl)-acetamide]
- pIC50 (Human NPY5 Receptor; [1]): 5.42
- pIC50 (Human NPY2 receptor; [2]): < 5.30

SMILES: O=C(CSc1nc2ccccc2o1)Nc1ccc(C(=O)c2ccccc2)cc1 [Compound 48, 2-(Benzooxazol-2-ylsulfanyl)-N-(4-benzoyl-phenyl)-acetamide]
- pIC50 (Human NPY5 Receptor; [1]): 5.52
- pIC50 (Human NPY2 receptor; [2]): < 5.30

SMILES: O=C(CSc1ncccn1)Nc1ccc(C(=O)c2ccccc2)cc1 [Compound 49, N-(4-Benzoyl-phenyl)-2-(pyrimidin-2-ylsulfanyl)-cetarnide]
- pIC50 (Human NPY5 Receptor; [1]): 5.80
- pIC50 (Human NPY2 receptor; [2]): < 5.30

SMILES: O=C(CSc1ccncc1)Nc1ccc(C2CCCCC2)cc1 [Compound 50, N-(-clohexyl-phenyl)-2-(pyridin-4-ylsulfanyl)-acetamide]
- pIC50 (Human NPY5 Receptor; [1]): 7.28
- pIC50 (Human NPY2 receptor; [2]): < 5.30

SMILES: O=C(CSc1nnnn1-c1ccccc1)Nc1ccc(C2CCCCC2)cc1 [Compound 52]
- pIC50 (Human NPY5 Receptor; [1]): 6.14
- pIC50 (Human NPY2 receptor; [2]): < 5.30

SMILES: O=C(CSc1ccc(F)cc1)Nc1ccc(C2CCCCC2)cc1 [Compound 53]
- pIC50 (Human NPY5 Receptor; [1]): 6.68
- pIC50 (Human NPY2 receptor; [2]): < 5.30

SMILES: CC(=O)Nc1ccc(SCC(=O)Nc2ccc(C3CCCCC3)cc2)cc1 [Compound 54]
- pIC50 (Human NPY5 Receptor; [1]): 5.70
- pIC50 (Human NPY2 receptor; [2]): < 5.30

SMILES: O=C(CSc1ccc(O)cc1)Nc1ccc(C2CCCCC2)cc1 [Compound 55]
- pIC50 (Human NPY5 Receptor; [1]): 5.77
- pIC50 (Human NPY2 receptor; [2]): < 5.30

SMILES: O=C(CSc1nc[nH]n1)Nc1ccc(C2CCCCC2)cc1 [Compound 56, N-(4-Cyclohexyl-phenyl)-2-(1H-[1,2,4]triazol-3-ylsultanyl)-acetamide]
- pIC50 (Human NPY5 Receptor; [1]): 6.14
- pIC50 (Human NPY2 receptor; [2]): < 5.30

SMILES: Nc1nc(SCC(=O)Nc2ccc(C3CCCCC3)cc2)n[nH]1 [Compound 57, 2-(-Amino-2H-[1,2,4]triazol-3-ylsulfanyl)-N-(4-cyclohexyl-phenyl)-acetamide]
- pIC50 (Human NPY5 Receptor; [1]): < 6.00
- pIC50 (Human NPY2 receptor; [2]): < 5.30

SMILES: Nc1nc(SCC(=O)Nc2ccc(C3CCCCC3)cc2)c2[nH]cnc2n1 [Compound 58, 2-(2-Amino-7H-purin-ylsulfanyl)-N-(4-cyclohexyl-phenyl)-acetamide]
- pIC50 (Human NPY5 Receptor; [1]): < 6.00
- pIC50 (Human NPY2 receptor; [2]): < 5.30

SMILES: Nc1nc(SCC(=O)Nc2ccc(C3CCCCC3)cc2)nc2[nH]ncc12 [Compound 59]
- pIC50 (Human NPY5 Receptor; [1]): < 6.00
- pIC50 (Human NPY2 receptor; [2]): < 5.30

SMILES: CCOc1ccc2nc(SCC(=O)Nc3ccc(C(=O)c4ccccc4)cc3)sc2c1 [Compound 60]
- pIC50 (Human NPY5 Receptor; [1]): 5.68
- pIC50 (Human NPY2 receptor; [2]): < 5.30

SMILES: Nc1nnc(SCC(=O)Nc2ccc(C(=O)c3ccccc3)cc2)s1 [Compound 61]
- pIC50 (Human NPY5 Receptor; [1]): 6.29
- pIC50 (Human NPY2 receptor; [2]): < 5.30

SMILES: O=C(CSc1nnnn1-c1ccccc1)Nc1ccc(C(=O)c2ccccc2)cc1 [Compound 62, N-(4-Benzoyl-phenyl)-2-(1-phenyl-1H-tetrazol-5-ylsulfanyl)-acetamide]
- pIC50 (Human NPY5 Receptor; [1]): 6.52
- pIC50 (Human NPY2 receptor; [2]): < 5.30

SMILES: O=C(CSc1ccc(F)cc1)Nc1ccc(C(=O)c2ccccc2)cc1 [Compound 63, N-(4-Benzoyl-phenyl)-2-(4-fluoro-phenylsulfanyl)-acetamide]
- pIC50 (Human NPY5 Receptor; [1]): 6.19
- pIC50 (Human NPY2 receptor; [2]): < 5.30

SMILES: CC(=O)Nc1ccc(SCC(=O)Nc2ccc(C(=O)c3ccccc3)cc2)cc1 [Compound 64, 2-(-Acetylamino-phenylsulfanyl)-N-(4-benzoyl-phenyl)-acetamide]
- pIC50 (Human NPY5 Receptor; [1]): 5.57
- pIC50 (Human NPY2 receptor; [2]): < 5.30

SMILES: O=C(CSc1ccc(O)cc1)Nc1ccc(C(=O)c2ccccc2)cc1 [Compound 65]
- pIC50 (Human NPY5 Receptor; [1]): 6.01
- pIC50 (Human NPY2 receptor; [2]): < 5.30

SMILES: O=C(CSc1nc[nH]n1)Nc1ccc(C(=O)c2ccccc2)cc1 [Compound 66, N-(4-Benzoyl-phenyl)-2-(1H-[1,2,4]triazol-3-ylsulfanyl)-acetamide]
- pIC50 (Human NPY5 Receptor; [1]): 5.77
- pIC50 (Human NPY2 receptor; [2]): < 5.30

SMILES: Nc1n[nH]c(SCC(=O)Nc2ccc(C(=O)c3ccccc3)cc2)n1 [Compound 67, 2-(5-Amino-2H-[1,2,4]triazol-3-ylsulfanyl)-N-(4-benzoyl-phenyl)-acetamide]
- pIC50 (Human NPY5 Receptor; [1]): 5.12
- pIC50 (Human NPY2 receptor; [2]): < 5.30

SMILES: Nc1nc(SCC(=O)Nc2ccc(C(=O)c3ccccc3)cc2)c2[nH]cnc2n1 [Compound 68, 2-(2-Amino-7H-purin-ylsulfanyl)-N-(4 benzoyl-phenyl)-acetamide]
- pIC50 (Human NPY5 Receptor; [1]): 5.30
- pIC50 (Human NPY2 receptor; [2]): < 5.30
